Results on 18 compounds are retold here after patent US5691311A (Biogen, Inc., priority 1995, dated 1997).

Like-named read-outs stand apart in the source and are kept apart here.

One data set relates to hemostasis. The experiment in a line: Template bleeding time. Format: in vivo, baboon.
The next data set has as its system APTT. The experiment in a line: Systemic anticoagulant effect (APTT) of antithrombotic agents. It is filed as in vivo, baboon. Particulars: dose not given. The text has this:
We also tested the effects of a variety of other agents on template bleeding time in the baboon, as well as on systemic anticoagulant effects (as measured by APTT).

For data set [1], the system named is platelet-dependent thrombosis. The conditions noted are these: collagen-coated surfaces, reported values; cited from earlier work.
Data set [2] has as its target T1, human α-thrombin (Homo sapiens, UniProt P00734).
T1 construct: proteolysis of the B-chain of α-thrombin; human α-thrombin-catalyzed hydrolysis of Spectrozyme TH
Description: Thrombin-catalyzed hydrolysis of Spectrozyme TH. It is filed as biochemical. Particulars: for Ki: method of Example 9, Spectrozyme TH; for inhibitory activity versus linker length: FIG. 6. Here is the method: The thrombin-catalyzed rate was monitored in a Cary 19 spectrophotometer at 405 nm and recorded continuously as a function of time. Kinetics were performed at room temperature (25°±1°C.) in a 0.05M Tris, pH 7.5, 0.1M NaCl buffer.
For a typical enzyme reaction, 1.0 ml of buffer was added to both the sample and reference cuvettes. […] Immediately following addition of substrate, the contents of the sample cuvette were mixed by use of a plastic pipette. The reaction was monitored spectrophotometrically for 5-15 minutes.
Initial rate velocities at each substrate concentration were expressed as moles Spectrozyme TH hydrolyzed/sec/mole thrombin. This was determined during the initial linear phase of the reaction (≤15% total hydrolysis of substrate) by measuring the slope of the hydrolytic reaction. Lineweaver-Burke plots were constructed accordingly, by plotting the inverse of the initial velocity against the inverse of the substrate concentration.

Data set [3] concerns the target T1, human α-thrombin. The experiment in a line: Cleavage of Hirulogs by thrombin (chromogenic and HPLC assays). Format: biochemical. Particulars: turnover rate of Hirulog hydrolysis by thrombin. Here is the method:
Aliquots (0.975 ml) of the reaction mixtures were removed at various times and mixed in a cuvette with 0.025 ml Spectrozyme TH (11 μM final concentration), a chromogenic substrate. The initial rate of reaction was determined and, based on control mixtures containing thrombin in the absence of Hirulog, the % inhibition was calculated.
An alternate method employed reverse-phase HPLC separation of aliquots from a Hirulog/thrombin reaction mixture. In this assay we added human α-thrombin (0.25 μM final concentrations) to a reaction vessel containing one of the above Hirulogs (12.5 μM final concentration). Aliquots (50 μl) were removed both prior to and at various times following the addition of thrombin. The aliquots were either flash frozen of injected directly onto the HPLC column. The HPLC system employed an Applied Biosystems Liquid Chromatography System equipped with an Aquapore C, column (0.46×10 cm). The column was equilibrated in 70% solvent A (0.1% TFA in water) and 30% solvent B (0.085% TFA/70% acetonitrile) and developed with a linear gradient of from 30 to 50% solvent B over 30 minutes at a flow rate of 1 ml/minute. The effluent stream was monitored at 214 nm. Peptide concentrations were determined by measurement of peak heights.
Both of the above-described assays allow determination of the rate of Hirulog hydrolysis by thrombin (expressed in M/min) and turnover rate (kcat; expressed in min^-1).

The test system of data set [4] is human α-thrombin. The experiment in a line: human α-thrombin in 20 mM Tris-HCl pH 7.4 containing 0.1M NaCl.
For data set [5], the system named is human α-thrombin (1.6 nM chromogenic assay; 0.25 μM HPLC assay). The description is as above.

What is called ED50 is the dose at which the effect has come halfway, by size or by number of responders. For `CC1CNc2c(cccc2S(=O)(=O)N[C@@H](CCCNC(=N)N)C(=O)N2CC[C@@H](C)C[C@@H]2C(=O)O)C1` (some centres unmarked) [Argipidine (MD805), argatroban (argipidine)], the “Bleeding Time” value with hemostasis (in vivo) is on record as over 30 min. Besides, the “APTT (% control)” value with APTT is over 900 % control. For the same compound, the ED50 in data set [1] was 550 nmol/kg/min.
`N=C(N)c1ccccc1` [Benzamidine, benzamidine]: the “Bleeding Time” value in the data set on hemostasis (dose not given) was 10 min. The “APTT (% control)” value in the data set on APTT worked out at 757.6 % control. Besides, the ED50 in data set [1] was 3000 nmol/kg/min.
As usually defined, the Ki is the dissociation constant of the complex between target and ligand, obtained from inhibition or displacement. One may read the kcat as the maximal rate divided by the concentration of active sites. On to `CC[C@H](C)[C@H](NC(=O)[C@H](CCC(=O)O)NC(=O)[C@H](CCC(=O)O)NC(=O)[C@H](Cc1ccccc1)NC(=O)[C@H](CC(=O)O)NC(=O)CNC(=O)[C@H](CC(N)=O)NC(=O)CNC(=O)CNC(=O)CNC(=O)CNC(=O)CNC(=O)CN(C)C(=O)[C@H](CCCNC(=N)N)NC(=O)[C@@H]1CCCN1C(=O)[C@H](N)Cc1ccccc1)C(=O)N1CCC[C@H]1C(=O)N[C@@H](CCC(=O)O)C(=O)N[C@@H](CCC(=O)O)C(=O)N[C@@H](Cc1ccc(O)cc1)C(=O)N[C@@H](CC(C)C)C(=O)O` [Hirulog-10], for which, on human α-thrombin [2], the “inhibition of thrombin-catalyzed hydrolysis of Spectrozyme TH (in words)” value is “poor inhibitors”. At human α-thrombin [2] (Ki), this compound displayed an inhibitory constant (Ki) of over 2000 nM. Moreover, the kcat on human α-thrombin [3] came to 0.167 s⁻¹.
Regarding `CC[C@H](C)[C@H](NC(=O)[C@H](CCC(=O)O)NC(=O)[C@H](CCC(=O)O)NC(=O)[C@H](Cc1ccccc1)NC(=O)[C@H](CC(=O)O)NC(=O)CNC(=O)[C@H](CC(N)=O)NC(=O)CNC(=O)CNC(=O)[C@@H]1CCCN1C(=O)[C@H](CCCNC(=N)N)NC(=O)[C@@H]1CCCN1C(=O)[C@H](N)Cc1ccccc1)C(=O)N1CCC[C@H]1C(=O)N[C@@H](CCC(=O)O)C(=O)N[C@@H](CCC(=O)O)C(=O)N[C@@H](Cc1ccc(O)cc1)C(=O)N[C@@H](CC(C)C)C(=O)O` [Hirulog-13], the reduction of activity entry at human α-thrombin [2] (18 Å linker length, versus Hirulogs-8, -15, -16) was “more than 10 fold”.
With `CC[C@H](C)[C@H](NC(=O)[C@H](CCC(=O)O)NC(=O)[C@H](CCC(=O)O)NC(=O)[C@H](Cc1ccccc1)NC(=O)[C@H](CC(=O)O)NC(=O)CNC(=O)[C@H](CC(N)=O)NC(=O)CNC(=O)CNC(=O)CNC(=O)CNC(=O)CNC(=O)CNC(=O)[C@@H]1CCCN1C(=O)[C@H](CCCNC(=N)N)NC(=O)[C@@H]1CCCN1C(=O)[C@H](N)Cc1ccccc1)C(=O)N1CCC[C@H]1C(=O)N[C@@H](CCC(=O)O)C(=O)N[C@@H](CCC(=O)O)C(=O)N[C@@H](Cc1ccc(O)cc1)C(=O)N[C@@H](CC(C)C)C(=O)O` [Hirulog-15], the “inhibitory activity versus linker length” value against human α-thrombin [2] is recorded as “comparable inhibitory activities”.
Same read-out and setting: the value for `CC[C@H](C)[C@H](NC(=O)[C@H](CCC(=O)O)NC(=O)[C@H](CCC(=O)O)NC(=O)[C@H](Cc1ccccc1)NC(=O)[C@H](CC(=O)O)NC(=O)CNC(=O)[C@H](CC(N)=O)NC(=O)CNC(=O)CNC(=O)CNC(=O)CNC(=O)CNC(=O)CNC(=O)CNC(=O)CNC(=O)[C@@H]1CCCN1C(=O)[C@H](CCCNC(=N)N)NC(=O)[C@@H]1CCCN1C(=O)[C@H](N)Cc1ccccc1)C(=O)N1CCC[C@H]1C(=O)N[C@@H](CCC(=O)O)C(=O)N[C@@H](CCC(=O)O)C(=O)N[C@@H](Cc1ccc(O)cc1)C(=O)N[C@@H](CC(C)C)C(=O)O` [Hirulog-16] was “comparable inhibitory activities”.
In the case of `CC[C@H](C)[C@H](NC(=O)[C@H](CCC(=O)O)NC(=O)[C@H](CCC(=O)O)NC(=O)[C@H](Cc1ccccc1)NC(=O)[C@H](CC(=O)O)NC(=O)CNC(=O)[C@H](CC(N)=O)NC(=O)CNC(=O)CNC(=O)CNC(=O)CNC(=O)CNC(=O)C[C@H](CCCNC(=N)N)NC(=O)[C@@H]1CCCN1C(=O)[C@H](N)Cc1ccccc1)C(=O)N1CCC[C@H]1C(=O)N[C@@H](CCC(=O)O)C(=O)N[C@@H](CCC(=O)O)C(=O)N[C@@H](Cc1ccc(O)cc1)C(=O)N[C@@H](CC(C)C)C(=O)O` [Hirulog-18a], the inhibitory constant (Ki) on human α-thrombin [2] (Ki) is 7.4 nM.
On the same count and under the same terms, the value for `CC[C@H](C)[C@H](NC(=O)[C@H](CCC(=O)O)NC(=O)[C@H](CCC(=O)O)NC(=O)[C@H](Cc1ccccc1)NC(=O)[C@H](CC(=O)O)NC(=O)CNC(=O)[C@H](CC(N)=O)NC(=O)CNC(=O)CNC(=O)CNC(=O)CNC(=O)[C@@H]1CCCN1C(=O)C[C@H](CCCNC(=N)N)NC(=O)[C@@H]1CCCN1C(=O)[C@H](N)Cc1ccccc1)C(=O)N1CCC[C@H]1C(=O)N[C@@H](CCC(=O)O)C(=O)N[C@@H](CCC(=O)O)C(=O)N[C@@H](Cc1ccc(O)cc1)C(=O)N[C@@H](CC(C)C)C(=O)O` [Hirulog-18b] was 4.6 nM; that for `CC[C@H](C)[C@H](NC(=O)[C@H](CCC(=O)O)NC(=O)[C@H](CCC(=O)O)NC(=O)[C@H](Cc1ccccc1)NC(=O)[C@H](CC(=O)O)NC(=O)CNC(=O)[C@H](CC(N)=O)NC(=O)CNC(=O)CNC(=O)CNC(=O)CNC(=O)[C@@H](NC(=O)C[C@H](CCCNC(=N)N)NC(=O)[C@@H]1CCCN1C(=O)[C@H](N)Cc1ccccc1)C(C)C)C(=O)N1CCC[C@H]1C(=O)N[C@@H](CCC(=O)O)C(=O)N[C@@H](CCC(=O)O)C(=O)N[C@@H](Cc1ccc(O)cc1)C(=O)N[C@@H](CC(C)C)C(=O)O` [Hirulog-18c] was 205 nM.
The same measure, in the same setting: the value for `CC[C@H](C)[C@H](NC(=O)[C@H](CCC(=O)O)NC(=O)[C@H](CCC(=O)O)NC(=O)[C@H](Cc1ccccc1)NC(=O)[C@H](CC(=O)O)NC(=O)CNC(=O)[C@H](CC(N)=O)NC(=O)CNC(=O)CNC(=O)CNC(=O)CNC(=O)CNC[C@H](CCCNC(=N)N)NC(=O)[C@@H]1CCCN1C(=O)[C@H](N)Cc1ccccc1)C(=O)N1CCC[C@H]1C(=O)N[C@@H](CCC(=O)O)C(=O)N[C@@H](CCC(=O)O)C(=O)N[C@@H](Cc1ccc(O)cc1)C(=O)N[C@@H](CC(C)C)C(=O)O` [Hirulog-19] was 20 nM.
In the case of `CC[C@H](C)[C@H](NC(=O)[C@H](CCC(=O)O)NC(=O)[C@H](CCC(=O)O)NC(=O)[C@H](Cc1ccccc1)NC(=O)[C@H](CC(=O)O)NC(=O)CNC(=O)[C@H](CC(N)=O)NC(=O)CNC(=O)CNC(=O)CNC(=O)CNC(=O)CNC(=O)[C@H](CCCNC(=N)N)NC(=O)[C@@H]1CCCN1C(=O)[C@H](N)Cc1ccccc1)C(=O)N1CCC[C@H]1C(=O)N[C@@H](CCC(=O)O)C(=O)N[C@@H](CCC(=O)O)C(=O)N[C@@H](Cc1ccc(O)cc1)C(=O)N[C@@H](CC(C)C)C(=O)O` [Hirulog-32], on human α-thrombin [2], the “inhibition of thrombin-catalyzed hydrolysis of Spectrozyme TH (in words)” value is “poor inhibitors”. Besides, the inhibition constant (Ki) on human α-thrombin [2] (Ki) was over 2000 nM. The kcat on human α-thrombin [3] is 8.92 s⁻¹.
`NC(N)=NCCC[C@H](NC(=O)[C@@H]1CCCN1C(=O)[C@H](N)Cc1ccccc1)C(=O)CCl` [PPACK, D-Phe-Pro-Arg-CHCl2]: the “Bleeding Time” value with hemostasis (dose not given) is given as 12 min. The “APTT (% control)” value with APTT amounted to 287.9 % control. Besides, in data set [1], the ED50 was 75 nmol/kg/min.
In the case of “H-(D-Phe)-Pro-(β-homoarginine)-Pro-(Gly)4 -Asn-Gly-Asp-Phe-Glu-Glu-Ile-Pro-Glu-Glu-Tyr-Leu-OH”, the not cleaved result in the data set on human α-thrombin [4] is “kcat <0.01 min^-1; resistant to thrombin cleavage”.
As for “H-(D-Phe)-Pro-Arg-(Gly)5 -Asn-Gly-Asp-Phe-Glu-Glu-Ile-Pro-Glu-Glu-Tyr-Leu-OH”, in data set [5], the cleaved bond entry was “Arg-Gly”.
Same read-out and setting: the entry for “H-(D-Phe)-Pro-Arg-Pro-(Gly)4 -Asn-Gly-Asp-Phe-Glu-Glu-Ile-Pro-Glu-Glu-Tyr-Leu-OH” is “Arg-Pro, minor”; for “H-(D-Phe)-Pro-Arg-Sar-(Gly)5 -Asn-Gly-Asp-Phe-Glu-Glu-Ile-Pro-Glu-Glu-Tyr-Leu-OH” it is “Arg-Sar”.
On the same count and under the same terms, the value for “N-acetyl-Gly-Asp-phe-Leu-Ala-Glu-(Gly)3 -Val-Arg-Pro-(Gly)4 -Asn-Gly-Asp-Phe-Glu-Glu-Ile-Pro-Glu-Glu-Tyr-Leu-OH” was “Arg-Pro, minor”.
On to “N-acetyl-Gly-Asp-phe-Leu-Ala-Glu-(Gly)3 -Val-Arg-Pro-(Gly)4 -Asn-Gly-Asp-Phe-Glu-Glu-Ile-Pro-Glu-Glu-Tyr-Leu-OH [Hirulog-33]”, for which the inhibition constant Ki on human α-thrombin [2] (read-out: Ki) came out at 3.6 nM. In addition, the kcat on human α-thrombin [3] stood at 0.000933 s⁻¹.
